In ChEMBL document CHEMBL5137054, “Xyloketal B Reverses Nutritional Hepatic Steatosis, Steatohepatitis, and Liver Fibrosis through Activation of the PPARα/PGC1α Signaling Pathway” (J Nat Prod, 2022):
Active and inactive are the calls of the source.

Assays:
Format in all cases: functional, organism-based
Conditions in all cases: time 6.0 weeks
[1] = system: Mus musculus; test: Upregulation of Acaa1a gene transcriptional level in HFD-induced C57BL/6J mouse model of NAFL at 15 mg/kg/day, ip administered from week 7 to week 12 by qRT-PCR analysis
[2] = system: Mus musculus; test: Upregulation of Medium-chain specific acyl-CoA dehydrogenase gene transcriptional level in HFD-induced C57BL/6J mouse model of NAFL at 15 mg/kg/day, ip administered from week 7 to week 12 by qRT-PCR analysis
[3] = system: Mus musculus; test: Upregulation of Cpt1a gene transcriptional level in HFD-induced C57BL/6J mouse model of NAFL at 15 mg/kg/day, ip administered from week 7 to week 12 by qRT-PCR analysis
[4] = system: Mus musculus; test: Upregulation of Acox2 gene transcriptional level in HFD-induced C57BL/6J mouse model of NAFL at 15 mg/kg/day, ip administered from week 7 to week 12 by qRT-PCR analysis
[5] = system: Mus musculus; test: Upregulation of Cyp4a10 gene transcriptional level in HFD-induced C57BL/6J mouse model of NAFL at 15 mg/kg/day, ip administered from week 7 to week 12 by qRT-PCR analysis
[6] = system: Mus musculus; test: Upregulation of Cpt1b gene transcriptional level in HFD-induced C57BL/6J mouse model of NAFL at 15 mg/kg/day, ip administered from week 7 to week 12 by qRT-PCR analysis
[7] = system: Mus musculus; test: Upregulation of Cyp4a14 gene transcriptional level in HFD-induced C57BL/6J mouse model of NAFL at 15 mg/kg/day, ip administered from week 7 to week 12 by qRT-PCR analysis
[8] = system: Mus musculus; test: Upregulation of Cpt1c gene transcriptional level in HFD-induced C57BL/6J mouse model of NAFL at 15 mg/kg/day, ip administered from week 7 to week 12 by qRT-PCR analysis
[9] = system: Mus musculus; test: Upregulation of long-chain specific acyl-CoA dehydrogenase gene transcriptional level in HFD-induced C57BL/6J mouse model of NAFL at 15 mg/kg/day, ip administered from week 7 to week 12 by qRT-PCR analysis
[10] = system: Mus musculus; test: Upregulation of Acox1 gene transcriptional level in HFD-induced C57BL/6J mouse model of NAFL at 15 mg/kg/day, ip administered from week 7 to week 12 by qRT-PCR analysis
[11] = system: Mus musculus; test: Upregulation of peroxisomal bifunctional enzyme gene transcriptional level in HFD-induced C57BL/6J mouse model of NAFL at 15 mg/kg/day, ip administered from week 7 to week 12 by qRT-PCR analysis

Measured: Activity

CC(C)c1c(C(=O)Nc2ccccc2)c(-c2ccccc2)c(-c2ccc(F)cc2)n1CC[C@@H](O)C[C@@H](O)CC(=O)O
active: [1] | [2] | [3] | [4] | [5] | [6] | [7] | [8] | [9] | [10] | [11]
